{"source": "patent US20150104430A1", "about": "“Methods and Compositions for Generating Pancreatic Progenitors and Functional Beta Cells from hPSCs” (University Health Network, priority 2012, published 2015)", "key": {"[1]": {"test_system": "human ES cell line: H9 (WA09)", "assay": "Percentage of NKX6-1+ cells after stage 4 treatment of H9 (WA09)-derived endodermal cells", "format": "cell-based", "conditions": "day 13 of differentiation, treatment at stage 4"}, "[2]": {"test_system": "human fetal pancreatic cells", "conditions": "Otonkoski et al., 1993; cited from earlier work"}}}
{"molecule": "EGF [EGF (E)]", "values": [{"measurement": "Percentage of NKX6-1+ cells", "setting": "[1]", "value": 18.5, "unit": "%"}]}
{"molecule": "NC(=O)c1cccnc1", "note": "[Nicotinamide (NA), Nicotinamide]", "values": [{"measurement": "Percentage of NKX6-1+ cells", "setting": "[1]", "value": 14.0, "unit": "%"}, {"measurement": "induction of endocrine differentiation", "setting": "[2]", "value": "potent inducer of endocrine differentiation"}]}
{"molecule": "Noggin (protein, UniProt Q13253 28-232, looked up, bone morphogenetic protein antagonist having Gene ID: 9241) Noggin: QHYLHIRPAPSDNLPLVDLIEHPDPIFDPKEKDLNETLLRSLLGGHYDPGFMATSPPEDRPGGGGGAAGGAEDLAELDQLLRQRPSGAMPSEIKGLEFSEGLAQGKKQRLSKKLRRKLQMWLWSQTFCPVLYAWNDLGSRFWPRYVKVGSCFSKRSCSVPEGMVCKPSKSVHLTVLRWRCQRRGGQRCGWIPIQYPIISECKCSC", "values": [{"measurement": "Percentage of NKX6-1+ cells", "setting": "[1]", "value": 21.7, "unit": "%"}]}
